Data from ChEMBL document CHEMBL3132779, “Design, synthesis and biological evaluation of imidazo[1,5-a]pyridinePBD conjugates as potential DNA-directed alkylating agents” (Medchemcomm, 2013).
pIC50: −log10 of the molar value. Active and inactive are the calls of the source. No cut-off for these calls is given here.

Legend:
MCF7 [1] = test: Cell cycle arrest in human MCF7 cells assessed as accumulation at G1 phase at 4 uM after 24 hrs by propidium iodide staining-based flow cytometric analysis (reference value: 56.48%); assay type: functional
MCF7 [2] = test: Cell cycle arrest in human MCF7 cells assessed as accumulation at G0 phase at 2 uM after 24 hrs by propidium iodide staining-based flow cytometric analysis (reference value: 3.36%); assay type: functional
MCF7 [3] = test: Cell cycle arrest in human MCF7 cells assessed as accumulation at G0 phase at 4 uM after 24 hrs by propidium iodide staining-based flow cytometric analysis (reference value: 3.36%); assay type: functional
MCF7 [4] = test: Cell cycle arrest in human MCF7 cells assessed as accumulation at G2/M phase at 2 uM after 24 hrs by propidium iodide staining-based flow cytometric analysis (reference value: 27.93%); assay type: functional
MCF7 [5] = test: Cell cycle arrest in human MCF7 cells assessed as accumulation at S phase at 2 uM after 24 hrs by propidium iodide staining-based flow cytometric analysis (reference value: 12.23%); assay type: functional
DNA = test: Binding affinity to calf thymus DNA assessed as change in melting temperature at 1:5 drug/DNA ratio at 37 degC after 18 hrs by spectrophotometry; assay type: nucleic-acid assay; conditions: Bos taurus
MCF7 [6] = test: Cytotoxicity against human MCF7 cells assessed as reduction cell viability after 24 hrs by MTT assay; assay type: functional, cell-based; conditions: MCF7, 24 h
MCF7 [7] = test: Cell cycle arrest in human MCF7 cells assessed as accumulation at G1 phase at 2 uM after 24 hrs by propidium iodide staining-based flow cytometric analysis (reference value: 56.48%); assay type: functional
MCF7 [8] = test: Cell cycle arrest in human MCF7 cells assessed as accumulation at G2/M phase at 4 uM after 24 hrs by propidium iodide staining-based flow cytometric analysis (reference value: 27.93%); assay type: functional
MCF7 [9] = test: Cell cycle arrest in human MCF7 cells assessed as accumulation at S phase at 4 uM after 24 hrs by propidium iodide staining-based flow cytometric analysis (reference value: 12.23%); assay type: functional
MCF7 [10] = test: Induction of apoptosis in human MCF7 cells assessed as decrease in cyclin D1 expression at 4 uM after 24 hrs by Western blot analysis; assay type: functional, cell-based
MCF7 [11] = test: Induction of apoptosis in human MCF7 cells assessed as increase in active caspase 9 at 4 uM after 24 hrs by Western blot analysis; assay type: functional, cell-based
MCF7 [12] = test: Induction of DNA in human MCF7 cells assessed as increase in phosphorylated gamma-H2AX foci formation measured by immunoflourosence microscopy relative to control; assay type: functional
MCF7 [13] = test: Induction of apoptosis in human MCF7 cells assessed as decrease in PARP protein expression at 4 uM after 24 hrs by Western blot analysis; assay type: functional, cell-based
MCF7 [14] = test: Induction of apoptosis in human MCF7 cells assessed as increase in P53 tumor suppressor protein expression at 4 uM after 24 hrs by Western blot analysis; assay type: functional, cell-based
MCF7 [15] = test: Induction of apoptosis in human MCF7 cells assessed as increase in P21 tumor suppressor protein expression at 4 uM after 24 hrs by Western blot analysis; assay type: functional, cell-based
MCF7 [16] = test: Induction of apoptosis in human MCF7 cells assessed as increase in P53 tumor suppressor protein expression at 4 uM after 24 hrs by ELISA; assay type: functional, cell-based

Structure (SMILES)	Activity (MCF7 [1]) [%]	Activity (MCF7 [2]) [%]	Activity (MCF7 [3]) [%]	Activity (MCF7 [4]) [%]	Activity (MCF7 [5]) [%]	ΔTm (DNA) [°C]	pIC50 (MCF7 [6])	Activity (MCF7 [7]) [%]	Activity (MCF7 [8]) [%]	Activity (MCF7 [9]) [%]	inhibition (MCF7 [10])	Activity (MCF7 [11])	Activity (MCF7 [12]) [%]	inhibition (MCF7 [13])	Activity (MCF7 [14])	Activity (MCF7 [15])	Activity (MCF7 [16])
COc1cc2c(cc1OCCCN1CCN(C(=O)c3nc(-c4ccc(C(F)(F)F)cc4)n4ccccc34)CC1)N=C[C@@H]1CCCN1C2=O	69.36	4.52	6.23	32.52	10.34	8.8	5.24	52.63	14.71	9.7	–	–	–	–	–	–	–
COc1cc2c(cc1OCCCCN1CCN(C(=O)c3nc(-c4ccccc4)n4ccccc34)CC1)N=C[C@@H]1CCCN1C2=O	63.74	2.8	5.47	31.3	17.03	8.9	5.14	48.87	20.95	9.85	–	–	–	–	–	–	–
COc1cc2c(cc1OCCCCCN1CCN(C(=O)c3nc(-c4ccc(C(F)(F)F)cc4)n4ccccc34)CC1)N=C[C@@H]1CCCN1C2=O	49.66	5.7	17.13	41.41	8.48	10.2	5.50	44.41	25.32	6.9	Active	Active	80	Active	Active	Active	Active
O=C(c1nc(-c2ccc(C(F)(F)F)cc2)n2ccccc12)N1CCNCC1	–	–	–	–	–	2.5	–	–	–	–	–	–	–	–	–	–	–
O=C(O)c1nc(-c2ccc(C(F)(F)F)cc2)n2ccccc12	–	–	–	–	–	0.3	–	–	–	–	–	–	–	–	–	–	–
COc1ccc(-c2nc(C(=O)N3CCN(CCCOc4cc5c(cc4OC)C(=O)N4CCC[C@H]4C=N5)CC3)c3ccccn23)cc1	66.92	3.56	6	31.44	19.65	8.8	5.22	45.35	13.27	13.81	–	–	–	–	–	–	–
COc1ccc(-c2nc(C(=O)N3CCN(CCCCCOc4cc5c(cc4OC)C(=O)N4CCC[C@H]4C=N5)CC3)c3ccccn23)cc1	53.22	5.57	6.07	31.61	10.06	9.9	5.25	52.76	30.3	10.42	–	–	–	–	–	–	–
COc1cc2c(cc1OCCCCCCN1CCN(C(=O)c3nc(-c4ccc(C(F)(F)F)cc4)n4ccccc34)CC1)N=C[C@@H]1CCCN1C2=O	52.13	3.66	7.14	34.09	9.33	8.7	5.37	52.92	30.79	9.94	–	–	–	–	–	–	–
COc1cc2c(cc1OCCCCN1CCN(C(=O)c3nc(-c4ccc(C(F)(F)F)cc4)n4ccccc34)CC1)N=C[C@@H]1CCCN1C2=O	57.32	3.64	15.19	41.29	12.14	10	5.49	42.94	18.71	8.78	Active	Active	–	Active	Active	Active	Active
COc1cc2c(cc1O)N=C[C@@H]1CCCN1C2=O	54.08	2.83	5.33	27.28	16.13	0.7	5.30	53.76	26.83	13.76	–	–	–	–	Active	Active	Active
COc1ccc(-c2nc(C(=O)N3CCN(CCCCOc4cc5c(cc4OC)C(=O)N4CCC[C@H]4C=N5)CC3)c3ccccn23)cc1	59.03	4.51	7.01	34.52	9.89	9.9	5.38	51.08	22.9	14.04	–	–	–	–	–	–	–
COc1cc2c(cc1OCCCCCCN1CCN(C(=O)c3nc(-c4ccccc4)n4ccccc34)CC1)N=C[C@@H]1CCCN1C2=O	55.54	4.08	7.79	39.25	10.52	8	5.43	43.15	20.15	16.52	–	–	–	–	–	–	–
COc1ccc(-c2nc(C(=O)N3CCN(CCCCCCOc4cc5c(cc4OC)C(=O)N4CCC[C@H]4C=N5)CC3)c3ccccn23)cc1	54.67	5.39	13.33	40.53	13.2	8.9	5.43	41.06	23.56	8.44	–	–	–	–	–	–	–
COc1cc2c(cc1OCCCN1CCN(C(=O)c3nc(-c4ccccc4)n4ccccc34)CC1)N=C[C@@H]1CCCN1C2=O	54.44	4.26	5.23	28.35	11.86	8.9	5.14	55.54	30.14	10.19	–	–	–	–	–	–	–
COc1cc2c(cc1OCCCCCN1CCN(C(=O)c3nc(-c4ccccc4)n4ccccc34)CC1)N=C[C@@H]1CCCN1C2=O	51.6	4.49	7.6	36.5	9.84	9	5.38	49.16	30.74	10	–	–	–	–	–	–	–
